Experimental findings from PMC6268373, “Systematic Study of the Physicochemical Properties of a Homologous Series of Aminobisphosphonates” (Molecules, 2012) are described below.

Converted amounts (≈) assume the structure as drawn.

Data set [1] in a line: Thermal analysis (TG/DTA and TGA 7). Type of data set: physicochemical. Conditions: for Td: 5 °C/min; for Temp. range of 1st cleavage: lower limit taken at 0.5 wt-%; for Temp. range of dehydration / onset T of dehydration / Td (decomposition onset): heating rate 5 °C/min; for Td (decomposition onset): average from both instruments. The method, then:
Thermal decomposition paths with evaluation of crystal water content were obtained parallel with two instruments; Perkin Elmer STA 6000 thermogravimetric TG/DTA and Perkin Elmer TGA 7 analyzers (Perkin Elmer, Massachusetts, USA). Measurements were carried out in an open platinum crucible (the higher 5 mm crucible was used in TG/DTA and a shallower 2 mm crucible in TGA 7) under air atmosphere (flow rate of 45 mL/min) with a heating rate of 5 °C/min over the temperature range of 25−700 °C. The temperature calibration of STA 6000 was made using melting points of indium (156.60 °C) and zinc (419.5 °C) standards. For TGA 7 magnetic Curie-point calibration technique (Alumel, Ni, Perkalloy, Fe) was used. The weight balance of both instruments was calibrated by measuring a standard weight of 50 mg at room temperature. The sample weights used in the measurements were about 4–8 mg, and for each bisphosphonate, it was attempted to keep the same on both instruments. The melting/dehydration/decomposition behavior of the compounds was also visually monitored using a Stuart Scientific SMP3 melting point apparatus.

Data set [2] is described as follows: Effect of pH on aqueous solubility. As to conditions: for pH of solubility minimum: pH range 0.5 to 11.0; for solubility at 30 min: water, pH adjusted with NaOH or HCl, 21 °C, thermodynamic from solid.
Protocol: A Jasco V-530 UV/Vis spectrophotometer was used for phosphorus determination at 880 nm wavelength. Filtered liquid samples were diluted to the appropriate volume with Milli-Q water and were digested with the persulphate oxidation technique in acidic medium at elevated temperature to convert aminobisphosponates to orthophosphate. In an acidic medium, ammonium molybdate and antimony potassium tartrate react with orthophosphate to form a phosphomolybdic acid that is reduced to intensively colored molybdenum blue by ascorbic acid [30].
The mixture containing an excess of the studied compound was first agitated for predetermined time with magnetic stirrer and before taking the sample mixture was allowed to stand for 24 h without stirring. The sample (about 5 mL) was taken from liquid above the solids, pH was measured and the sample was filtered through 0.2 µm membrane filter to remove any possible insoluble particles. The phosphorus concentration in the filtered sample solution was determined by using the spectrophotometric method described above.
The nature of data set [3]: Aqueous solubility of saturated solution at 21 °C (phosphorus determination by molybdenum blue spectrophotometry). As to conditions: for solubility at 30 min: Milli-Q water, unbuffered, thermodynamic from solid; for solubility at 30 min / pH of saturated solution: 21 °C; for pH of saturated solution: saturated aqueous solution, agitation time 30 min.

Usually solubility stands for the concentration that dissolves in the medium under given conditions. Lower therefore signals little dissolved substance.

Turning to `NCCCCCCCCCCC(O)(P(=O)(O)O)P(=O)(O)O` [Compound 8, (11-Amino-1-hydroxyundecylidene)bisphosphonic acid], the “Onset temperature of first cleavage” value in data set [1] (TG/DTA, higher crucible) worked out at 73 °C; in data set [1] (TGA 7, shallow crucible) it was 70 °C. Further, the Td was 199 °C in data set [1] (TG/DTA, higher crucible, air) and 204 °C in data set [1] (TGA 7, shallow crucible, air). The “Temp. range of 1st cleavage” value in data set [1] (TG/DTA, higher crucible) was 50–146 °C; in data set [1] (TGA 7, shallow crucible), 39–149 °C. For the same compound, in data set [1] (air), the “Temp. range of dehydration” value is 40–148 °C. The “onset T of dehydration” value in data set [1] (air) stood at 72 °C. Further, the “Td (decomposition onset)” value in data set [1] (air) is 202 °C. In addition, the “temperature of first decomposition step (cleavage of amino group / degradation)” value in data set [1] (thermogravimetry, air) worked out at 200 °C. For the same compound, the “pH of solubility minimum” value in data set [2] was ~2. Besides, the solubility at 30 min stood at 180 µg/mL (≈ 518 µM) in data set [2] (pH 0, aqueous buffer); 80 µg/mL (≈ 230 µM) in data set [2] (pH 1, aqueous buffer); 50 µg/mL (≈ 144 µM) in data set [2] (pH 2, aqueous buffer); 80 µg/mL (≈ 230 µM) in data set [2] (pH 3, aqueous buffer); 180 µg/mL (≈ 518 µM) in data set [2] (pH 4, aqueous buffer); 230 µg/mL (≈ 662 µM) in data set [2] (pH 5, aqueous buffer). The solubility at 30 min in data set [2] (pH 6, aqueous buffer) came to 270 µg/mL (≈ 777 µM); in data set [2] (pH 7, aqueous buffer), 290 µg/mL (≈ 835 µM); in data set [2] (pH 8, aqueous buffer), 250 µg/mL (≈ 720 µM); in data set [2] (pH 9, aqueous buffer), 290 µg/mL (≈ 835 µM); in data set [2] (pH 10, aqueous buffer), 400 µg/mL (≈ 1150 µM); in data set [2] (pH 11, aqueous buffer), 370 µg/mL (≈ 1070 µM). The compound further returned a solubility at 30 min in data set [3] (water) of 58 µg/mL (≈ 167 µM). The “pH of saturated solution” value in data set [3] was 4.71.

With `NCCCCCCCCCCCCCCCC(O)(P(=O)(O)O)P(=O)(O)O` [Compound 10, (16-Amino-1-hydroxyhexadecylidene)bisphosphonic acid], the “Onset temperature of first cleavage” value in data set [1] (TG/DTA, higher crucible) was 178 °C; in data set [1] (TGA 7, shallow crucible), 181 °C. Besides, the Td in data set [1] (TG/DTA, higher crucible, air) was determined as 178 °C; in data set [1] (TGA 7, shallow crucible, air), 181 °C. For the same compound, the “Temp. range of 1st cleavage” value was 150–248 °C in data set [1] (TG/DTA, higher crucible) and 146–245 °C in data set [1] (TGA 7, shallow crucible). Moreover, the “Td (decomposition onset)” value in data set [1] (air) is 180 °C. Also, the “temperature of first decomposition step (cleavage of amino group / degradation)” value in data set [1] (thermogravimetry, air) is “about 200 °C”. Further, in data set [3] (water), the solubility at 30 min worked out at 39 µg/mL (≈ 93.4 µM). Moreover, the “pH of saturated solution” value in data set [3] amounted to 7.79.

`NCCCCCCCCCC(O)(P(=O)(O)O)P(=O)(O)O` [Compound 7, (10-Amino-1-hydroxydecylidene)bisphosphonic acid]: the “Onset temperature of first cleavage” value in data set [1] (TG/DTA, higher crucible) came to 185 °C; in data set [1] (TGA 7, shallow crucible), 189 °C. For the same compound, the Td in data set [1] (TG/DTA, higher crucible, air) stood at 185 °C; in data set [1] (TGA 7, shallow crucible, air), 189 °C. Moreover, the “Temp. range of 1st cleavage” value was 175–211 °C in data set [1] (TG/DTA, higher crucible) and 161–227 °C in data set [1] (TGA 7, shallow crucible). The “Td (decomposition onset)” value in data set [1] (air) was found to be 187 °C. The “temperature of first decomposition step (cleavage of amino group / degradation)” value in data set [1] (thermogravimetry, air) was “about 200 °C”. The compound also returned a solubility at 30 min in data set [3] (water) of 217 µg/mL (≈ 651 µM). Also, the “pH of saturated solution” value in data set [3] amounted to 3.28. For the same compound, the “water solubility (in words)” value in data set [3] (water) is given as “hundreds of milligrams”.

`NCCCCCCCCCCCC(O)(P(=O)(O)O)P(=O)(O)O` [Compound 9, (12-Amino-1-hydroxydodecylidene)bisphosphonic acid]: the “Onset temperature of first cleavage” value in data set [1] (TG/DTA, higher crucible) was 185 °C; in data set [1] (TGA 7, shallow crucible) it was 191 °C. Besides, the Td in data set [1] (TG/DTA, higher crucible, air) came to 185 °C; in data set [1] (TGA 7, shallow crucible, air) it was 191 °C. The “Temp. range of 1st cleavage” value in data set [1] (TG/DTA, higher crucible) was 163–232 °C; in data set [1] (TGA 7, shallow crucible), 155–221 °C. In data set [1] (air), the “Td (decomposition onset)” value is 188 °C. Moreover, the “temperature of first decomposition step (cleavage of amino group / degradation)” value in data set [1] (thermogravimetry, air) was “about 200 °C”. For the same compound, the “pH of solubility minimum” value in data set [2] is ~2. In addition, the solubility at 30 min in data set [2] (pH 0, aqueous buffer) worked out at 130 µg/mL (≈ 360 µM); in data set [2] (pH 1, aqueous buffer), 80 µg/mL (≈ 221 µM); in data set [2] (pH 2, aqueous buffer) it was 70 µg/mL (≈ 194 µM); in data set [2] (pH 3, aqueous buffer), 80 µg/mL (≈ 221 µM); in data set [2] (pH 4, aqueous buffer) it was 140 µg/mL (≈ 387 µM); in data set [2] (pH 5, aqueous buffer) it was 200 µg/mL (≈ 554 µM). The solubility at 30 min worked out at 210 µg/mL (≈ 581 µM) in data set [2] (pH 6, aqueous buffer); 200 µg/mL (≈ 554 µM) in data set [2] (pH 7, aqueous buffer); 240 µg/mL (≈ 664 µM) in data set [2] (pH 8, aqueous buffer); 250 µg/mL (≈ 692 µM) in data set [2] (pH 9, aqueous buffer); 400 µg/mL (≈ 1110 µM) in data set [2] (pH 10, aqueous buffer); 470 µg/mL (≈ 1300 µM) in data set [2] (pH 11, aqueous buffer). In data set [3] (water), the concentration in solution (solubility at 30 min) came to 30 µg/mL (≈ 83 µM). Moreover, the “pH of saturated solution” value in data set [3] is recorded as 4.05.

For `NCCCCCCCCC(O)(P(=O)(O)O)P(=O)(O)O` [Compound 6, (9-Amino-1-hydroxynonylidene)bisphosphonic acid], the “Onset temperature of first cleavage” value in data set [1] (TG/DTA, higher crucible) amounted to 77 °C; in data set [1] (TGA 7, shallow crucible) it was 84 °C. Also, the Td in data set [1] (TG/DTA, higher crucible, air) is 190 °C; in data set [1] (TGA 7, shallow crucible, air), 191 °C. Moreover, the “Temp. range of 1st cleavage” value was 33–175 °C in data set [1] (TG/DTA, higher crucible) and 33–173 °C in data set [1] (TGA 7, shallow crucible). The “Temp. range of dehydration” value in data set [1] (air) was 33–175 °C. Also, the “onset T of dehydration” value in data set [1] (air) is 81 °C. In addition, the “Td (decomposition onset)” value in data set [1] (air) is 191 °C. The “temperature at which dehydration is initiated” value in data set [1] (thermogravimetry, air) is ~ 90 °C. Further, the solubility at 30 min was determined as 2100 µg/mL (≈ 6580 µM) in data set [2] (pH 0, aqueous buffer); 1150 µg/mL (≈ 3600 µM) in data set [2] (pH 1, aqueous buffer); 860 µg/mL (≈ 2690 µM) in data set [2] (pH 2, aqueous buffer); 1170 µg/mL (≈ 3670 µM) in data set [2] (pH 3, aqueous buffer); 1080 µg/mL (≈ 3380 µM) in data set [2] (pH 4, aqueous buffer); 1110 µg/mL (≈ 3480 µM) in data set [2] (pH 5, aqueous buffer). The solubility at 30 min was determined as 1230 µg/mL (≈ 3850 µM) in data set [2] (pH 6, aqueous buffer); 1190 µg/mL (≈ 3730 µM) in data set [2] (pH 7, aqueous buffer); 1230 µg/mL (≈ 3850 µM) in data set [2] (pH 8, aqueous buffer); 1190 µg/mL (≈ 3730 µM) in data set [2] (pH 9, aqueous buffer); 1200 µg/mL (≈ 3760 µM) in data set [2] (pH 10, aqueous buffer); 1270 µg/mL (≈ 3980 µM) in data set [2] (pH 11, aqueous buffer). In data set [3] (water), this compound had a solubility at 30 min of 2070 µg/mL (≈ 6470 µM). In data set [3], the “pH of saturated solution” value worked out at 2.51.
